Measured values: patent US6500840B2, “Quinuclidine-substituted heteroaryl moieties for treatment of disease” (Pharmacia & Upjohn Company, priority 2000, dated 2002)

How the values were obtained:
[1] = molecular target: α7 nAChR (Rattus norvegicus, UniProt Q05941); assay: [3H]-MLA competition binding assay, rat brain membranes; settings: Ki, inhibition of [3H]-MLA binding (3.0 to 4.0 nM), Sprague-Dawley rat whole brain minus cerebellum homogenate, 1 hour at 25° C
Procedure: Membrane Preparation. Male Sprague-Dawley rats (300-350 g) are sacrificed by decapitation and the brains (whole brain minus cerebellum) are dissected quickly, weighed and homogenized in 9 volumes/g wet weight of ice-cold 0.32 M sucrose using a rotating pestle on setting 50 (10 up and down strokes). The homogenate is centrifuged at 1,000×g for 10 minutes at 4° C. The supernatant is collected and centrifuged at 20,000×g for 20 minutes at 4° C. The resulting pellet is resuspended to a protein concentration of 1-8 mg/mL. Aliquots of 5 mL homogenate are frozen at −80° C. until needed for the assay.
Binding Assay. […] Filters are pre-soaked in 50 mm Tris HCl pH 7.0-0.05% polyethylenimine. The filters are rapidly washed two times with 5 mL aliquots of cold 0.9% saline and then counted for radioactivity by liquid
Data Analysis. […] Hill coefficients were obtained using non-linear regression (GraphPad Prism sigmoidal dose-response with variable slope).

[2] = molecular target: T1, 5HT3R (Homo sapiens, UniProt P46098); settings: cited from earlier work
T1 sequence (P46098 24-478): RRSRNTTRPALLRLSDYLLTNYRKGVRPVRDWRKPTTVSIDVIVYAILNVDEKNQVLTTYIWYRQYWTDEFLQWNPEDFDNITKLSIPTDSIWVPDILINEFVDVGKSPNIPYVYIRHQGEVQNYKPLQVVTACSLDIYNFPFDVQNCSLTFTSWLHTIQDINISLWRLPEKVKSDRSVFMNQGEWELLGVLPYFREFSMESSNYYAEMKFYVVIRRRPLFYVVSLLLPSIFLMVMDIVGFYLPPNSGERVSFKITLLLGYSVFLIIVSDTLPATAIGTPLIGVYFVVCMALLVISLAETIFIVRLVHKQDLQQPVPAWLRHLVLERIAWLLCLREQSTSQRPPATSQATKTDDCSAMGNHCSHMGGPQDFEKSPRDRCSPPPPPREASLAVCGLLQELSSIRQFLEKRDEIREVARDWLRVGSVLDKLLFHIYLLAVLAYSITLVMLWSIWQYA

[3] = molecular target: α7 nAChR (Homo sapiens, UniProt P36544); settings: cited from earlier work
Sequence of α7 nAChR (Homo sapiens, UniProt P36544) (P36544 23-502): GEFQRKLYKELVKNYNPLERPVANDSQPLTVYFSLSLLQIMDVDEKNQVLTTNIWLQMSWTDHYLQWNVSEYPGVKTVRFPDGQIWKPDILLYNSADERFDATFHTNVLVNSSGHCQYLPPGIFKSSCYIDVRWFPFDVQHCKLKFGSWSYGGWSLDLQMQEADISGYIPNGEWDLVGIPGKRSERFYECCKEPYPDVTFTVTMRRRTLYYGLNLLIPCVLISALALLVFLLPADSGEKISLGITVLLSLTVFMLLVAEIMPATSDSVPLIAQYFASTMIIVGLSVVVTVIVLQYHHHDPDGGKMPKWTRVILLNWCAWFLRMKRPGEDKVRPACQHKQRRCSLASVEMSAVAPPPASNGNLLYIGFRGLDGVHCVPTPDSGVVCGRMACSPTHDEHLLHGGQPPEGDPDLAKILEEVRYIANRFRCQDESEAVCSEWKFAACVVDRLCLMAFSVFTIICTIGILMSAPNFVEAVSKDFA

Sequence of α7 nAChR (Rattus norvegicus, UniProt Q05941) (Q05941 23-502): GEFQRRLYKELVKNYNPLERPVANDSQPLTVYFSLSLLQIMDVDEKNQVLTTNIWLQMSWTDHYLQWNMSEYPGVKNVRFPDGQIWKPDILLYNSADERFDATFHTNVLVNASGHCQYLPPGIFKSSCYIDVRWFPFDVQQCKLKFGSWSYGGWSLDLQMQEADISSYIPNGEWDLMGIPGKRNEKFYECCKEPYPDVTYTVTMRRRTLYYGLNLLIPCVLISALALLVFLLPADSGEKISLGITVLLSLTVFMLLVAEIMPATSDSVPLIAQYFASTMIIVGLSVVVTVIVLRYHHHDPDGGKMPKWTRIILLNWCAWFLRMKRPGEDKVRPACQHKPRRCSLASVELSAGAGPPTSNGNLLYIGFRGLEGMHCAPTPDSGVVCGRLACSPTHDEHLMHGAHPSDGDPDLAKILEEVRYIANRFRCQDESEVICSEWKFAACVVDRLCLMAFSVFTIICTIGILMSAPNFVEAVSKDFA

| SMILES | Ki [1] | further results |
| --- | --- | --- |
| O=C(N[C@H]1CN2CCC1CC2)c1ccc(C#Cc2ccccc2)o1 [Example 150, N-[(3R)-1-Azabicyclo[2.2.2]oct-3-yl]-5-(phenylethynyl)-furan-2-carboxamide 4-Methylbenzenesulfonate] | 290 to 330 nM | – |
| O=C(N[C@H]1CN2CCC1CC2)c1ccc(Oc2ccccc2)o1 [Example 151, N-[(3R)-1-Azabicyclo[2.2.2]oct-3-yl]-5-phenoxy-furan-2-carboxamide 4-Methylbenzenesulfonate] | 225 to 835 nM | – |
| Cn1c(C(=O)N[C@H]2CN3CCC2CC3)ccc1-c1ccccc1 [Example 152, N-[(3R)-1-Azabicyclo[2.2.2]oct-3-yl]-1-methyl-5-phenyl-1H-pyrrole-2-carboxamide] | 20 to 65 nM | – |
| O=C(N[C@H]1CN2CCC1CC2)c1ncc(-c2ccccc2)o1 [Example 153, N-[(3R)-1-azabicyclo[2.2.2]oct-3-yl]-5-phenyl-1,3-oxazole-2-carboxamide 4-methylbenzenesulfonate] | 1550 nM | – |
| O=C(N[C@H]1CN2CCC1CC2)c1nc(-c2ccccc2)no1 [Example 154, N-[(3R)-1-azabicyclo[2.2.2]oct-3-yl]-3-phenyl-1,2,4-oxadiazole-5-carboxamide 4-methylbenzenesulfonate] | > 1000 nM | – |
| O=C(N[C@H]1CN2CCC1CC2)c1cnc(-c2ccccc2)o1 [Example 155, N-[(3R)-1-azabicyclo[2.2.2]oct-3-yl]-2-phenyl-1,3-oxazole-5-carboxamide 4-methylbenzenesulfonate] | 1380 nM | – |
| COc1ccc(/C=C2\CCCN=C2c2cccnc2)c(OC)c1 [GTS-21] | – | activity at the 5HT3R [2]: little activity |
| Cc1nccn1CC1CCc2c(c3ccccc3n2C)C1=O (centres unmarked) [Ondansetron] | – | activity at the α7 nAChR [3]: little activity |
